In patent US10336733B2, “Aryl acylsulfonamides as BLT1 antagonists” (Merck Sharp & Dohme Corp., priority 2015, dated 2019) one finds EC50 data, which are given here for 22 compounds.

Chain of human BLT1 receptor (Q15722 whole entry): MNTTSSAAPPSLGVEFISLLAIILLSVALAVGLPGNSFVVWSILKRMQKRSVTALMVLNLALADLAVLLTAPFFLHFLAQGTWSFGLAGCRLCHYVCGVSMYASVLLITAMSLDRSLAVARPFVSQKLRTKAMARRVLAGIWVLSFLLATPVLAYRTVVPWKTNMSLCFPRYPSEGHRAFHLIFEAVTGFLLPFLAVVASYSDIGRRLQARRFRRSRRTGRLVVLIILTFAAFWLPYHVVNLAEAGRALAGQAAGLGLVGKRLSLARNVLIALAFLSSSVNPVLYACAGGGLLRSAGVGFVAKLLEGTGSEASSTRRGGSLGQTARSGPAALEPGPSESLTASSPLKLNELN

In this assay the target is human BLT1 receptor (Homo sapiens (Human), UniProt Q15722). As to the kind of experiment: BLT-1 cAMP Assay. Format: cell-based. Conditions: antagonist mode; HEK293 cells recombinantly expressing human BLT1 receptor; forskolin 4 μM and LTB4 2 nM; cAMP detection. Here is the method:
The ability of compounds to antagonize the human BLT1 receptor was determined using a kit to measure changes in intracellular cyclic AMP levels (cAMP dynamic assay kit, Cisbio Cat. No. 62AM4PEC). HEK293 cells recombinantly expressing human BLT1 receptor, previously frozen in Recovery Medium (Life Technologies, Cat. No. 12648-010) were thawed and diluted into assay medium (HBSS (Hyclone SH 30268.01), 20 mM HEPES (Gibco 15630-106), 800 μM IBMX (Sigma I5879), 0.1% DTPA BSA (Perkin Elmer CR84-100)). The cell suspension was centrifuged at 200×g for 10 min and then resuspended in fresh assay medium to a density of 2.5×10^5 cells/mL. A Labcyte Echo 550 acoustic dispenser was used to transfer 25 nL of test compound dissolved in DMSO into the wells of a dry 384-well plate (Greiner 784075). All subsequent liquid additions were performed using a BIORAPTR (FRD; Beckman Coulter). Next, 5 μL of cell suspension was added and incubated for 20 min. at 37° C. and 5% CO2 in a humidified plastic tray. To test for agonist activity […] of assay buffer containing forskolin (Sigma F-6886. 4 μM for BLT1) was added and incubated for 30 minutes at 37° C. and 5% CO2 in a humidified plastic tray. To test for antagonist activity 5 μL of assay buffer containing forskolin (Sigma F-6886. 4 μM for BLT1) and either LTB4 (Sigma Aldrich L0517; 2 nM BLT1) was added and incubated for 30 minutes at 37° C. and 5% CO2 in a humidified plastic tray.
The levels of cAMP were detected using the CisBio kit following the manufacturer's instructions: cAMP-d2 vial was reconstituted with distilled water and then diluted accordingly with conjugate & lysis buffer. 5 μL of cAMP-d2 working solution was added to all of the wells of the assay plate. cAMP-Cryptate vial was reconstituted with distilled water and then diluted accordingly with conjugate & lysis buffer. 5 μL of cAMP-Cryptate working solution were added to the assay plate. The assay plate was shaken for 3 minutes and incubated at room temperature for 45 minutes, then read on Perkin Elmer Envision. cAMP standard curve and fit data were plotted using a 4 parameter dose response curve fitting algorithm to fit curve. A 4-parameter curve fit (Max, min, log EC50 and slope) was used to transform fluorescent 665 nm/615 nm ratio signal to cAMP concentration. After normalization to treated and untreated controls, the percent effect of signal at each compound concentration was calculated. The plot of percent effect versus the log of compound concentration was fit with a 4-parameter concentration response equation to calculate EC50 values. Compound concentrations tested were 10 000, 3 333, 1 111, 370.4, 123.4, 41.2, 13.7, 4.6, 1.5 and 0.5 nM with 0.25% residual DMSO.
In general, EC50 refers to the concentration needed to bring the measured effect to its halfway point. In the case of `CC1(S(=O)(=O)NC(=O)c2ccc(F)cc2-c2ccc3c(c2)OC[C@@H](Cc2ccccn2)[C@@H]3O)CC1` (single isomer, unassigned) [Example 10, 4-Fluoro-2-((3R,4S or 3S,4R)-4-hydroxy-3-(pyridin-2-ylmethyl)chroman-7-yl)-N-((1-methylcyclopropyl)sulfonyl)benzamide], the concentration for a half-maximal effect (EC50) amounted to 870 nM.

As for `CC(C)(C)S(=O)(=O)NC(=O)c1ccccc1-c1ccc2c(c1)OC[C@@H](Cc1ccccn1)[C@@H]2O` (single isomer, unassigned) [Example 11, N-(tert-Butylsulfonyl)-2-((3R,4S or 3S,4R)-4-hydroxy-3-(pyridin-2-ylmethyl)chroman-7-yl)benzamide], the EC50 was determined as 144 nM.

`CC(C)(C)S(=O)(=O)NC(=O)c1ccccc1-c1ccc2c(c1)OC[C@H](Cc1ccccn1)[C@H]2O` (single isomer, unassigned) [Example 12, N-(tert-Butylsulfonyl)-2-((3S,4R or 3R,4S)-4-hydroxy-3-(pyridin-2-ylmethyl)chroman-7-yl)benzamide]: the half-maximal effective concentration (EC50) was determined as 17 nM.

Consider `CC(C)(C)S(=O)(=O)NC(=O)c1ccc(F)cc1-c1ccc2c(c1)OC[C@@H](Cc1ccccn1)[C@@H]2O` (single isomer, unassigned) [Example 13, N-(tert-Butylsulfonyl)-4-fluoro-2-((3R,4S or 3S,4R)-4-hydroxy-3-(pyridin-2-ylmethyl)chroman-7-yl)benzamide], for which the EC50 came out at 441 nM.

`CC(C)(C)S(=O)(=O)NC(=O)c1ccc(F)cc1-c1ccc2c(c1)OC[C@H](Cc1ccccn1)[C@H]2O` (single isomer, unassigned) [Example 14, N-(tert-Butylsulfonyl)-4-fluoro-2-((3S,4R or 3R,4S)-4-hydroxy-3-(pyridin-2-ylmethyl)chroman-7-yl)benzamide]: the EC50 stood at 2 nM.

Turning to `O=C(NS(=O)(=O)C1CC1)c1ccc(F)cc1-c1ccc2c(c1)OC[C@@H](Cc1ccccn1)[C@@H]2O` (single isomer, unassigned) [Example 15, N-(Cyclopropylsulfonyl)-4-fluoro-2-((3R,4S or 3S,4R)-4-hydroxy-3-(pyridin-2-ylmethyl)chroman-7-yl)benzamide], the half-maximal effective concentration (EC50) turned out to be 480 nM.

For `O=C(NS(=O)(=O)C1CC1)c1ccc(F)cc1-c1ccc2c(c1)OC[C@H](Cc1ccccn1)[C@H]2O` (single isomer, unassigned) [Example 16, N-(Cyclopropylsulfonyl)-4-fluoro-2-((3S,4R or 3R,4S)-4-hydroxy-3-(pyridin-2-ylmethyl)chroman-7-yl)benzamide], the 50% effective concentration (EC50) came to 4 nM.

On to `CC1(S(=O)(=O)NC(=O)c2ccccc2-c2ccc3c(c2)OC[C@@H](Cc2ccccc2)[C@@H]3O)CC1` (single isomer, unassigned) [Example 21, 2-((3R,4S or 3S,4R)-3-Benzyl-4-hydroxychroman-7-yl)-N-((1-methylcyclopropyl)sulfonyl)benzamide], for which the EC50 was 2040 nM.

For the compound `CC1(S(=O)(=O)NC(=O)c2ccccc2-c2ccc3c(c2)OC[C@H](Cc2ccccc2)[C@H]3O)CC1` (single isomer, unassigned) [Example 22, 2-((3S,4R or 3R,4S)-3-Benzyl-4-hydroxychroman-7-yl)-N-((1-methylcyclopropyl)sulfonyl)benzamide], the EC50 came out at 15 nM.

Regarding `O=C(NS(=O)(=O)C1CC1)c1ccccc1-c1ccc2c(c1)OC[C@@H](Cc1ccccc1)[C@@H]2O` (single isomer, unassigned) [Example 23, 2-((3R,4S or 3S,4R)-3-Benzyl-4-hydroxychroman-7-yl)-N-(cyclopropylsulfonyl)benzamide], the EC50 came to 2820 nM.

In the case of `O=C(NS(=O)(=O)C1CC1)c1ccccc1-c1ccc2c(c1)OC[C@H](Cc1ccccc1)[C@H]2O` (single isomer, unassigned) [Example 24, 2-((3S,4R or 3R,4S)-3-Benzyl-4-hydroxychroman-7-yl)-N-(cyclopropylsulfonyl)benzamide], the EC50 is 17 nM.

For the compound `CC1(S(=O)(=O)NC(=O)c2ccccc2-c2ccc3c(c2)OC[C@@H](Cc2cscn2)[C@@H]3O)CC1` (single isomer, unassigned) [Example 26, 2-((3R, 4S or 3S, 4R)-4-Hydroxy-3-(thiazol-4-ylmethyl)chroman-7-yl)-N-((1-methylcyclopropyl)sulfonyl)benzamide], the EC50 amounted to 770 nM.

For `CC1(S(=O)(=O)NC(=O)c2ccccc2-c2ccc3c(c2)OC[C@H](Cc2cscn2)[C@H]3O)CC1` (single isomer, unassigned) [Example 27, 2-((3S, 4R or 3R,4S)-4-hydroxy-3-(thiazol-4-ylmethyl)chroman-7-yl)-N-((1-methylcyclopropyl)sulfonyl)benzamide], the EC50 was 26 nM.

As to `CC(C)(C)S(=O)(=O)NC(=O)c1ccccc1-c1ccc2c(c1)OC[C@@H](Cc1cscn1)[C@@H]2O` (single isomer, unassigned) [Example 33, N-(tert-Butylsulfonyl)-2-((3R,4S or 3S,4R)-4-hydroxy-3-(thiazol-4-ylmethyl)chroman-7-yl)benzamide], the EC50 came out at 808 nM.

`CC(C)(C)S(=O)(=O)NC(=O)c1ccccc1-c1ccc2c(c1)OC[C@H](Cc1cscn1)[C@H]2O` (single isomer, unassigned) [Example 34, N-(tert-Butylsulfonyl)-2-((3S,4R or 3R,4S)-4-hydroxy-3-(thiazol-4-ylmethyl)chroman-7-yl)benzamide]: the 50% effective concentration (EC50) is 9 nM.

For `CCn1nccc1C[C@H]1COc2cc(-c3ccccc3C(=O)NS(=O)(=O)C(C)(C)C)ccc2[C@@H]1O` (single isomer, unassigned) [Example 37, N-(tert-Butylsulfonyl)-2-((3S,4R or 3R,4S)-3-((1-ethyl-1H-pyrazol-5-yl)methyl)-4-hydroxychroman-7-yl)benzamide], the EC50 came out at 36 nM.

As for `CCn1nccc1C[C@@H]1COc2cc(-c3ccccc3C(=O)NS(=O)(=O)C(C)(C)C)ccc2[C@H]1O` (single isomer, unassigned) [Example 38, N-(tert-Butylsulfonyl)-2-((3R,4S or 3S,4R)-3-((1-ethyl-1H-pyrazol-5-yl)methyl)-4-hydroxychroman-7-yl)benzamide], the concentration for a half-maximal effect (EC50) stood at 1160 nM.

Turning to `O=C(NS(=O)(=O)C(F)(F)F)c1ccc(F)cc1-c1ccc2c(c1)OC[C@@H](Cc1ccc(-c3ccccc3)cc1)[C@@H]2O` (single isomer, unassigned) [Example 41, 2-((3R,4S or 3S,4R)-3-([1,1′-Biphenyl]-4-ylmethyl)-4-hydroxychroman-7-yl)-4-fluoro-N-((trifluoromethyl)sulfonyl)benzamide], the 50% effective concentration (EC50) turned out to be 11 nM.

Take `CC1(S(=O)(=O)NC(=O)c2ccccc2-c2ccc3c(c2)OC[C@H](Cc2coc(-c4ccccc4)n2)[C@H]3O)CC1` (single isomer, unassigned) [Example 45, 2-((3S,4R or 3R,4S)-4-hydroxy-3-((2-phenyloxazol-4-yl)methy)chroman-7-yl)-N-((1-methylcyclopropyl)sulfonyl)benzamide]: the EC50 stood at 3 nM.

For the compound `CC(C)(C)S(=O)(=O)NC(=O)c1ccccc1-c1ccc2c(c1)OC[C@@H](Cc1coc(-c3ccccc3)n1)[C@@H]2O` (single isomer, unassigned) [Example 47, N-(tert-Butylsulfonyl)-2-((3R,4S or 3S,4R)-4-hydroxy-3-((2-phenyloxazol-4-yl)methyl)chroman-7-yl)benzamide], the EC50 came out at 75 nM.

Turning to `CC(C)(C)S(=O)(=O)NC(=O)c1ccccc1-c1ccc2c(c1)OC[C@H](Cc1coc(-c3ccccc3)n1)[C@H]2O` (single isomer, unassigned) [Example 48, N-(tert-Butylsulfonyl)-2-((3S,4R or 3R,4S)-4-hydroxy-3-((2-phenyloxazol-4-yl)methyl)chroman-7-yl)benzamide], the EC50 turned out to be 5 nM.

Consider `C[C@@H](c1ccccn1)C1COc2cc(-c3ccccc3C(=O)NS(=O)(=O)C3(C)CC3)ccc2C1O` (stereo in doubt) [Example 49, 2-((3,4-trans)-4-Hydroxy-3-((R)-1-(pyridin-2-yl)ethyl)chroman-7-yl)-N-((1-methylcyclopropyl)sulfonyl)benzamide], for which the 50% effective concentration (EC50) was 154 nM.
